In patent publication US10889611B2, “Sialyltransferase inhibitors and uses thereof” (Academia Sinica, priority 2015, dated 2021):
Where two headings read alike, the source gives them in different places. Marks after values point to notes of the source that are not given here.

Columns and labels:
[1] = biological target: T1, α2,3(N)-sialyltransferase ST3GALIII (Rattus norvegicus, UniProt Q02734); assay: Sialyltransferase activity assay, ST3GALIII; format: biochemical
T1 construct: purchased Calbiochem
T1 sequence (Q02734 1-374): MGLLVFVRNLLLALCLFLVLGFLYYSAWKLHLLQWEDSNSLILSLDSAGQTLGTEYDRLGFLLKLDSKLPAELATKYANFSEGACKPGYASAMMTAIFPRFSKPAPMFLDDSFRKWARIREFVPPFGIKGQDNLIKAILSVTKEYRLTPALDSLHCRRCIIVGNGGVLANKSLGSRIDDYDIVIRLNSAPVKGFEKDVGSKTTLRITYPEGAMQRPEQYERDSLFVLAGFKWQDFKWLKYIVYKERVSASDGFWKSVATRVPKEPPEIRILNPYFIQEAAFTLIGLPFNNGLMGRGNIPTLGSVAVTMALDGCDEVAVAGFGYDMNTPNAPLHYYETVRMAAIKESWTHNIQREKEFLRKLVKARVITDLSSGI
Method: (§1) The enzymes analyzed in the present study included rat ST3Gal(I), rat ST3Gal(III), and human ST6Gal(I). Rat ST3Gal(I) and rat ST3Gal(Ill), were purchased from Calbiochem®, while human ST6Gal(I) was purchased from RnDSystems.com.
(§2) Sialyltransferase inhibition assay […] was performed as follows: Sialyltransferase activity was determined by measuring the level of the end product of sialylated saccharides with reverse-phase HPLC. The assay mixtures contained the following components: 200 mM MES buffer; 100 mM NaCl; 0.5 mM EDTA; 0.01% Triton X-100; 1.4 mU ST3GALI; 2.5 mM T-antigen; 1 mM CMP-Neu5Ac and different concentration of Sialyltransferase inhibitors to a total volume of 50 μl. The assay mixture was incubated at 37° C. for 15 mins and then quenched by heating up to 101′C for 10 mins. The sialylated product was resolved by reversed-phase HPLC. Kinetic data were obtained by fitting the initial rate data to the nonlinear regression equation.
as §2, with “mU ST6GALI; 25 μM Galβ1-4GlcNAc;” for “mU ST3GALI; 2.5 mM T-antigen;”, “to 101° C.” for “to 101′C”, “product is” for “product was”, “resolved with” for “resolved by”
(§3) Effects of the present compounds on the activity of sialyltransferase, including α2,3(N)-sialyltransferase ST3GALIII, α2,6(N)-sialyltransferases ST6GALI, and α2,3(O)-sialyltransferase ST3GALI, were determined in accordance with procedures described in the “Materials and Methods” section, and results are summarized in Table 1.

[2] = biological target: T2, α2,6(N)-sialyltransferases ST6GALI (Homo sapiens, UniProt P15907); assay: Sialyltransferase inhibition assay, ST6GALI (reverse-phase HPLC); format: biochemical; conditions: for IC50: α2,6-N-link
T2 construct: purchased RnDSystems.com (R&D Systems)
T2 sequence (P15907 1-406): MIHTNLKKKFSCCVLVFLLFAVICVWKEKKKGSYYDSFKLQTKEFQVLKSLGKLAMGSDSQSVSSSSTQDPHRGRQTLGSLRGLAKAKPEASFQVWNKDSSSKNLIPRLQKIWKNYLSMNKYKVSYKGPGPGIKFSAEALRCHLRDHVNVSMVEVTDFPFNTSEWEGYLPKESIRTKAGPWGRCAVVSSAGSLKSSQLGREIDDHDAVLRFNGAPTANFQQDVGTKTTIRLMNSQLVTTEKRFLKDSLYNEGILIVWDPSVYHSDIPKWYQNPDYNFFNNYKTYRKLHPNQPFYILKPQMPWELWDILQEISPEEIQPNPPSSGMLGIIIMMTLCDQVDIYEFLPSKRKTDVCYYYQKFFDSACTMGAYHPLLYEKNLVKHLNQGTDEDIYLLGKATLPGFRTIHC
Method: as §1
as §2, with “mU ST6GALI; 25 μM Galβ1-4GlcNAc;” for “mU ST3GALI; 2.5 mM T-antigen;”, “to 101° C.” for “to 101′C”, “product is” for “product was”, “resolved with” for “resolved by”
as §3

[3] = biological target: T3, α2,3(O)-sialyltransferase ST3GALI (Rattus norvegicus, UniProt Q6H8N0); assay: Sialyltransferase inhibition assay, ST3GALI (reverse-phase HPLC); format: biochemical; conditions: for inhibition at 500 µM: measured at 500 μM
T3 construct: purchased Calbiochem
T3 sequence (Q6H8N0 1-340): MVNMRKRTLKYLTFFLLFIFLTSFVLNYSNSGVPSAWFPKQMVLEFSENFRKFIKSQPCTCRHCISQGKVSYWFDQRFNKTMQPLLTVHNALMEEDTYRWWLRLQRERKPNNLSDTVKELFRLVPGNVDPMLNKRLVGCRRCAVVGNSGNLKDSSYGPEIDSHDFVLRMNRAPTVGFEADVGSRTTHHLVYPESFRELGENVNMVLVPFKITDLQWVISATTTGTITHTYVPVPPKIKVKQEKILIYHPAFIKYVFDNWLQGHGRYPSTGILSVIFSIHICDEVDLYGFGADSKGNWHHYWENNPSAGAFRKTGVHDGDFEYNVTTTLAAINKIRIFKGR
Method: as §1, §2, §3

MDA-MB-231 cells = assay: Transwell migration assay, breast cancer cells; format: cell-based, human
Source text: Migration assays were done using a transwell, in which a polycarbonate filter pre-coated with Matrigel (8-μm pores, Millicell; Millipore, Billerica, Mass.) was inserted therein. […] Cells that had migrated to the underside of the inserted filter were stained with hematoxylin solution. The cells in the upper side of the inserted membrane were rubbed with a cotton swab. The migrated cells on the underside were pictured in a 200× magnification field and quantified.

[4] = biological target: T1, α2,3(N)-sialyltransferase ST3GALIII; assay: Sialyltransferase activity assay, ST3GALIII; format: biochemical; conditions: α2,3-N-link
[5] = read-out: ST3GALI inhibition percentage

Structure (SMILES) | selectivity ratio ST3GALI/ST3GALIII ([1]; calculated based on the concentration, 500 μM, of ST inhibitor used toward α2,3-O-ST3GALI, listed as 4 (FCW66)) | selectivity ratio ST3GALI/ST3GALIII ([1]; calculated based on the concentration, 1 mM, of ST inhibitor used toward α2,3-O-ST3GALI, listed as 4 (FCW66)) | selectivity ratio ST3GALI/ST6GALI [2] | IC50 ([2]; IC50 (μM) ST6GALI) | inhibition at 500 µM [3, 5] | inhibition at 1000 µM ([3]; measured at 1 mM, read-out: ST3GALI inhibition percentage) | migration of MDA-MD-231 cells (MDA-MB-231 cells; 20 μM, FIG. 1) | IC50 (MDA-MB-231 cells; Homo sapiens, MDA-MB-231, breast cancer cells treated with 2-30 μM, transwell, 16 hours, read-out: IC50 on migration) | IC50 ([4]; IC50 (μM) ST3GALIII) | selectivity ratio ST3GALI/ST3GALIII ([1]; calculated based on the concentration, 500 μM, of ST inhibitor used toward α2,3-O-ST3GALI) | selectivity ratio ST3GALI/ST3GALIII ([1]; comparative controls with measured ST3GALI IC50) | IC50 ([2]; read-out: IC50 (μM) ST6GALI) | IC50 ([3]; α2,3-O-link) | IC50 ([4]; read-out: IC50 (μM) ST3GALIII)
C[C@H](CCC(=O)OCCOCCOCCOCCN=[N+]=[N-])C1CC[C@H]2[C@@H]3CC[C@@H]4C[C@H](OC(=O)[C@H](CC(=O)O)Nc5ccc([N+](=O)[O-])c6nonc56)CC[C@]4(C)[C@H]3CC[C@]12C (stereo partly drawn) [Compound 4, (3S)-4-(((3R,5R,8R,9S,10S,13R,14S)-17-((R)-1-azido-13-oxo-3,6,9,12-tetraoxaheptadecan-6-yl)-10,13-dimethylhexadecahydro-1H-cyclopenta[a]phenanthren-3-yl)oxy)-3-((7-nitrobenzo[c][1,2,5]oxadiazol-4-yl)amino)-4-oxobutanoic acid] | >495^d | (≤990)^e | >102 | 4.9 ± 0.08 µM | 0% | 50% | inhibited the migration | 12 ± 0.13 µM | 1.01 ± 0.07 µM |  |  |  |  | 
C[C@H](CCC(=O)OCCOCCOCCOCCOCCN=[N+]=[N-])C1CC[C@H]2[C@@H]3CC[C@@H]4C[C@H](OC(=O)[C@H](CC(=O)O)Nc5ccc([N+](=O)[O-])c6nonc56)CC[C@]4(C)[C@H]3CC[C@]12C (stereo partly drawn) [Compound 5, (3S)-4-(((3R,5R,8R,9S,10S,13R,14S)-17-((R)-1-azido-16-oxo-3,6,9,12,15-pentaoxaicosan-19-yl)-10,13-dimethylhexadecahydro-1H-cyclopenta[a]phenanthren-3-yl)oxy)-3-((7-nitrobenzo[c][1,2,5]oxadiazol-4-yl)amino)-4-oxobutanoic acid] |  |  | >99 | 5.03 ± 0.2 µM | 0% |  |  |  | 0.97 ± 0.14 µM | >516^d |  |  |  | 
C[C@H](CCC(=O)O)[C@H]1CC[C@H]2[C@@H]3CC[C@@H]4C[C@H](OC(=O)[C@@H](N)CC(=O)O)CC[C@]4(C)[C@H]3CC[C@]12C [Lith-O-Asp, reference compound] |  |  | 3 |  |  |  |  |  |  |  | 3 | 15.78 ± 0.13 µM | 39 ± 1.26 µM | 12 µM
